Results published in US9499612B2, “Antigen binding constructs” (Glaxo Group Limited, priority 2011, dated 2016).

Tests used:
[1] = test system: VEGF165 induced proliferation of human umbilical vein endothelial cells; experiment: Human Umbilical Cord Endothelial Cell (HUVEC) proliferation assay; assay type: cell-based
Method: The assay measures the extent of endothelial cell proliferation induced by a defined concentration of VEGF165 and the ability of VEGF antagonists to block this effect. HUVECs were seeded at 5000 cells per well in 96-well gelatine-coated plates, leaving outer wells free of cells, and incubated for several hours to permit adherence. Test molecules were assayed at equimolar concentrations (max 3.33×10^−08 M) with a 2-fold serial dilution, each in triplicate. The VEGF165 was prepared in basal medium to achieve 75 ng/ml final concentration. Medium was removed manually from the cell monolayers and 50 μl basal media was added to prevent the cells from drying out. […] Cells were incubated for 72 hrs, after which time the total number of cells was determined using Cell Titre Glo. […]
(§1) PRISM™ using a Sigmodial curve fit, variable slope cf a non-linear regression (variable slope). […] Estimates of the curve maxima and the standard error were analysed using a weighted mixed model analysis of variance, using 1/(standard error)^2, [SE]^2, as a weighting. […]
as §1

[2] = test system: human VEGF165 induced blood-retinal breakdown; experiment: VEGF induced blood-retinal breakdown: rabbit retinal leakage model; assay type: in vivo; settings: for % reduction vs vehicle: Table 4B
Method: The high (H) and low (L) doses were based upon a molar equivalent dosing to Ranibizumab ([…] ™). The low dose, (L), was one third of the high dose.
In brief, all molecules were buffer exchanged using PD-10 Desalting Columns (GE Healthcare) into 10 mM Histidine HCl, 10% α-αtrehalose dehydrate, 0.01% PolySorbate 80, pH 5.5, and concentrated to the desired concentration using VIVASPIN™ 20, molecular weight cut off 5000 Da, spin concentrations (Sartorius Stedim Biotech), both were used according to manufacturer's instructions.
Ninety-eight (98) GD79B pigmented rabbits were randomly divided into nine (9) groups of ten (10) animals and one (1) group of eight (8) animals (used for KENACORT™ control). Each group was subdivided into 2 groups corresponding to 2 experimental sets. Test items, reference or control items were administered by intravitreal injection (IVT, 50 μL) into the right eyes on Day-7. Left eyes remained untreated and served as a negative control. On Day 0, right eyes were induced for blood retinal barrier (BRB) breakdown with a single intravitreal injection of 500 ng rhVEGF165 (vascular permeability inducer). Sodium fluorescein was intravenously injected to all groups 47 h after the VEGF challenge (Day 2). Within 10 min after the injection of the tracer a retinal angiography was performed on right eye and pictures were taken. Ocular fluorescein contents in the vitreoretinal compartment were measured 1 h later using non-invasive scanning ocular fluorophotometry. A right eye/left eye fluorescein content (AUC) Rt ratio was determined for retinal permeability evaluation. At the end of the evaluation period (Day 2), animals were euthanized and right eyes of all animals were enucleated. […] Fluorescein angiograms were collected for qualitative assessment.
One hundred and forty (140) HY79B pigmented rabbits were randomly divided into eleven (11) groups of twelve (12) animals and one (1) group of eight animals, each group was sub-divided into 4 experimental sets of 3 animals, bar the KENACORT™ treated group, (4 sets of 2 animals), (see Table 15A).

[3] = dose H, VEGF induced retinal leakage

Row | Compound | inhibition of HUVEC proliferation ([1]; Example 8, 75 ng/ml VEGF165, 72 hrs) [%] | inhibition of VEGF driven HUVEC proliferation ([1]; Example 18) [%] | % reduction vs vehicle [2, 3] [%] | % reduction vs vehicle ([2]; low dose (L)) [%] | % reduction vs vehicle ([2]; 2 000 μg/eye) [%] | % reduction ([2]; Table 15B (ii), 2 000 ug/eye) [%]
1 | Bevacizumab [AVASTIN ™, reference compound] | ~100 | ~100 | 75 | – | – | –
2 | Ranibizumab [LUCENTIS ™, reference compound] | – | – | 82 | 78 | – | –
3 | C[C@]12C=CC(=O)C=C1CC[C@H]1[C@@H]3C[C@@H](O)[C@](O)(C(=O)CO)[C@@]3(C)C[C@H](O)[C@@]12F [KENACORT ™, Triamcinalone, reference compound] | – | – | – | – | 85 | 80
